Six compounds from PubChem BioAssay (NCI) can be followed below.

SMILES strings stand for the structures.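 96-well plates; 48 h exposure; 5 concentrations. Endpoints by linear interpolation between flanking doses. Not reached: highest tested concentration assigned. GI50 = concentration required for 50% inhibition of growth. The concentration for full growth arrest is given as TGI.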 A value given as a limit tells only on which side of the number the result lay.

Holding throughout (assay): growth of human tumour cells (NCI), 48 h
Assay [1] deals with UACC-62 melanoma.
Assay [2] relates to RPMI-8226 leukemia.
Assay [3] concerns HS 578T breast.
Assay [4] relates to RXF 393 renal.
In assay [5] the test system is SNB-19 CNS.
Assay [6] relates to SK-MEL-5 melanoma.
Assay [7] relates to OVCAR-5 ovarian.
In assay [8] the test system is HT29 colon.
Assay [9] relates to SF-295 CNS.
The test system of assay [10] is SK-MEL-2 melanoma.

With `CN1CCN(CC(=O)N(C)c2ccc(N=C(c3ccccc3)c3c(O)[nH]c4ccc(C#N)cc34)cc2)CC1`, the GI50 in [1] was 4.57 µM; in assay [2] it was 2.65 µM; in assay [3] it was 0.0938 µM; in [4], 1.39 µM; in assay [5] it was 4.16 µM; in assay [6] it was 1.59 µM. In addition, the GI50 in [7] was 7.11 µM; in assay [8] it was 0.712 µM; in [9] it was 3.14 µM; in assay [10], 3.39 µM. Further, the TGI came to 14.3 µM in assay [1]; 6.52 µM in [2]; 2.09 µM in [3]; 3.38 µM in assay [4]; 16.6 µM in assay [5]; 3.16 µM in assay [6]. Further, the TGI worked out at 19.2 µM in assay [7], 15 µM in assay [8], 15.8 µM in assay [9] and 15.7 µM in assay [10].

Take `COc1ccc(C(O)c2cc3c(N)c(C(=O)Nc4ccc(Cl)cc4)sc3nc2C)cc1` (stereo not given): the GI50 is 1.86 µM in assay [1]; 2.22 µM in [2]; 1.82 µM in assay [3]; 2.25 µM in assay [4]; 4.16 µM in assay [5]; 2.74 µM in assay [6]. Also, the GI50 in assay [7] was 3.97 µM; in [8], 2.49 µM; in assay [9], 2.14 µM; in assay [10], 8.6 µM. In addition, the TGI in assay [1] was determined as 32.8 µM; in [2] it was 9.32 µM; in assay [3], 5.3 µM; in assay [4], 11.6 µM; in assay [5], 44.6 µM; in assay [6], 10.2 µM. Also, the TGI in assay [7] was 25.5 µM; in [8], 8.73 µM; in assay [9] it was 11.6 µM; in assay [10], 69.6 µM.

Regarding `COc1cc(/C=C2\C(=O)N(Cc3ccc(Cl)cc3)c3ccccc32)cc(OC)c1OC`, the GI50 is 2.21 µM in assay [1]; 0.645 µM in assay [2]; 1.65 µM in assay [3]; 2.35 µM in [4]; 4.78 µM in assay [5]; 3.98 µM in assay [6]. The GI50 in [7] was 3.38 µM; in [8], 3.27 µM; in assay [9], 4.41 µM; in [10] it was 4.86 µM. The TGI in [1] was determined as 10 µM; in assay [2] it was 2.39 µM; in assay [3] it was 11.1 µM; in assay [4] it was 4.95 µM; in assay [5], 18 µM; in assay [6] it was 11.9 µM. Also, the TGI is 14.5 µM in [7], over 30.5 µM in [8], 32.3 µM in assay [9] and 18 µM in assay [10].

Take `Cn1cc(/C=C\[N+](=O)[O-])c2ccccc21`: the GI50 in assay [1] is 83.6 µM; in [2], 16.1 µM; in assay [3], 19.8 µM; in [4] it was 17.6 µM; in assay [5], 75 µM; in assay [6] it was 14.8 µM. Moreover, the GI50 is over 100 µM in assay [7], 21.4 µM in [8], 52.9 µM in [9] and over 100 µM in assay [10]. For the same compound, the TGI in [1] is over 100 µM; in [2], 53.4 µM; in assay [3], 50.5 µM; in assay [4], 32.3 µM; in assay [5], over 100 µM; in [6], 31.6 µM. The TGI in assay [7] was over 100 µM; in [8] it was 39.8 µM; in assay [9] it was over 100 µM; in [10], over 100 µM.

Take `O=C1NC(=S)S/C1=C\c1cn(-c2ccccc2)nc1-c1ccccc1`: the GI50 was 3.36 µM in assay [1]; 2.52 µM in assay [2]; 6.03 µM in assay [3]; 22.4 µM in [4]; 6.14 µM in assay [5]; 3.19 µM in assay [6]. Also, the GI50 in [7] was 14.3 µM; in assay [8], 12.5 µM; in assay [9], 3.33 µM; in [10] it was 4.18 µM. Besides, the TGI in [1] is 15.1 µM; in assay [2] it was 68.6 µM; in assay [3] it was 43.6 µM; in [4], 65.2 µM; in assay [5], over 100 µM; in assay [6], 14.2 µM. Also, the TGI in assay [7] turned out to be 29.6 µM; in [8] it was 38.3 µM; in assay [9], 17.2 µM; in [10] it was 19.4 µM.

Take `CCCCN(CCCC)C(=O)[C@H](CC)[C@@H]1CC[C@@H](C)[C@@H]([C@H](C)[C@@H](O)[C@@H](C)C(=O)[C@H](CC)C2O[C@]3(C=C[C@@H](O)[C@]4(CC[C@@](C)([C@H]5CC[C@](O)(CC)[C@H](C)O5)O4)O3)[C@H](C)C[C@@H]2C)O1` (stereo not given in full): the GI50 is 1.47 µM in assay [1]; 1.79 µM in assay [2]; 2.32 µM in assay [3]; 1.59 µM in assay [4]; 3.46 µM in assay [5]; 1.73 µM in assay [6]. Besides, the GI50 in assay [7] is 1.9 µM; in assay [8], 2.88 µM; in assay [9] it was 2.06 µM; in [10], 2.67 µM. Besides, the TGI in [1] is 3.6 µM; in [2], 5.85 µM; in assay [3], 7.83 µM; in [4] it was 3.37 µM; in assay [5], over 100 µM; in [6] it was 3.15 µM. The TGI in assay [7] was determined as 4.78 µM; in assay [8], 12.4 µM; in assay [9], 6.38 µM; in assay [10], 7.53 µM.
